#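 Grown in 96-well plates, cells were treated for 48 hours with each compound at five concentrations. Insufficient inhibition: endpoint recorded as highest concentration tested. At the GI50, growth is halved.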 The source made the active and inactive calls. Cut-off read from the data, not from the text of the source: active = GI50 up to about 1.1 µM and inactive = higher.
# Key:
# Test in all cases: NCI anticancer screen, dose series, 48 h
# [1] = tested on: 786-0
# [2] = tested on: CCRF-CEM
# [3] = tested on: EKVX
# [4] = tested on: HCC 2998
# [5] = tested on: HCT-116
# [6] = tested on: HOP-92
# [7] = tested on: IGROV-1
# [8] = tested on: K562
# [9] = tested on: LOX IMVI
# [10] = tested on: NCI-H460
# [11] = tested on: OVCAR-3
# [12] = tested on: OVCAR-5
# [13] = tested on: RPMI-8226
# [14] = tested on: SK-MEL-28
# [15] = tested on: SNB-19
# [16] = tested on: RXF 393
Structure (SMILES),GI50 [1],GI50 [2],GI50 [3],GI50 [4],GI50 [5],GI50 [6],GI50 [7],GI50 [8],GI50 [9],GI50 [10],GI50 [11],GI50 [12],GI50 [13],GI50 [14],GI50 [15],GI50 [16]
C=C1CCC2C(C)(CO)C(O)CCC2(C)C1CC(O)C1=CCOC1=O (centres undefined),23.1 µM (inactive),22.9 µM (inactive),96.2 µM (inactive),17.7 µM (inactive),26.5 µM (inactive),> 100 µM (inactive),61.1 µM (inactive),34.1 µM (inactive),33.5 µM (inactive),49.9 µM (inactive),26.5 µM (inactive),> 100 µM (inactive),> 100 µM (inactive),> 100 µM (inactive),> 100 µM (inactive),
C=C(c1ccccc1)C1(O)CCCCC1N (centres undefined),> 100 µM (inactive),33.9 µM (inactive),> 100 µM (inactive),> 100 µM (inactive),> 100 µM (inactive),> 100 µM (inactive),> 100 µM (inactive),> 100 µM (inactive),> 100 µM (inactive),> 100 µM (inactive),> 89.5 µM (inactive),> 100 µM (inactive),50.7 µM (inactive),> 100 µM (inactive),> 100 µM (inactive),> 100 µM (inactive)
COc1cccc2c1c1ccc3c(c1n2C)C(=O)C=CC3=O,17.3 µM (inactive),0.615 µM (active),,48.4 µM (inactive),14.2 µM (inactive),13.1 µM (inactive),25.5 µM (inactive),3.61 µM (inactive),16.9 µM (inactive),48.4 µM (inactive),16.3 µM (inactive),41.9 µM (inactive),2.81 µM (inactive),19 µM (inactive),> 100 µM (inactive),
C/N=C(\N)c1ccc(NC(=N)c2ccc(C(=N)Nc3ccc(/C(N)=N/C)cc3)cc2)cc1,> 100 µM (inactive),> 100 µM (inactive),,,,76 µM (inactive),> 100 µM (inactive),> 100 µM (inactive),> 100 µM (inactive),> 100 µM (inactive),> 100 µM (inactive),> 100 µM (inactive),> 100 µM (inactive),> 100 µM (inactive),> 100 µM (inactive),> 100 µM (inactive)
NCC1(N2CCOCC2)C2CCCC21CO (centres undefined),> 100 µM (inactive),> 100 µM (inactive),,> 100 µM (inactive),> 100 µM (inactive),> 100 µM (inactive),> 100 µM (inactive),> 100 µM (inactive),,> 100 µM (inactive),> 100 µM (inactive),> 100 µM (inactive),> 100 µM (inactive),> 100 µM (inactive),> 100 µM (inactive),> 100 µM (inactive)
Nc1ccc(C(=O)CC2(O)C(=O)Nc3c(Cl)cc(Cl)cc32)cc1 (centres undefined),> 100 µM (inactive),16.4 µM (inactive),> 100 µM (inactive),> 100 µM (inactive),66.7 µM (inactive),> 100 µM (inactive),,40.1 µM (inactive),34.5 µM (inactive),> 100 µM (inactive),> 100 µM (inactive),> 100 µM (inactive),50.9 µM (inactive),> 100 µM (inactive),> 100 µM (inactive),> 100 µM (inactive)
COC(=O)C(=O)C(C(=O)C(=O)Nc1ccccc1C(N)=O)c1nc2ccc(C(=O)c3ccccc3)cc2nc1O (centres undefined),> 100 µM (inactive),> 100 µM (inactive),> 100 µM (inactive),> 100 µM (inactive),> 100 µM (inactive),,> 100 µM (inactive),42.6 µM (inactive),,> 100 µM (inactive),,> 100 µM (inactive),> 100 µM (inactive),> 100 µM (inactive),> 100 µM (inactive),80.2 µM (inactive)
CC(C)(C)OC(=O)NC1CCCC1=O (centres undefined),> 100 µM (inactive),> 100 µM (inactive),> 100 µM (inactive),> 100 µM (inactive),> 100 µM (inactive),> 100 µM (inactive),,> 100 µM (inactive),> 100 µM (inactive),> 100 µM (inactive),> 100 µM (inactive),> 100 µM (inactive),,> 100 µM (inactive),> 100 µM (inactive),> 100 µM (inactive)
COc1cc(C(Cc2ccccc2)NC(C)=O)oc(=O)c1 (centres undefined),> 100 µM (inactive),> 100 µM (inactive),> 100 µM (inactive),> 100 µM (inactive),,> 100 µM (inactive),> 100 µM (inactive),> 100 µM (inactive),> 100 µM (inactive),> 100 µM (inactive),> 100 µM (inactive),> 100 µM (inactive),> 100 µM (inactive),> 100 µM (inactive),> 100 µM (inactive),> 100 µM (inactive)

# From ChEMBL document CHEMBL1201862, “PubChem BioAssay data set” (2004)
